# Where two headings read alike, the source gives them in different places.
# Tests used:
# Format in all cases: in vivo
# Kochia (Kochia scoparia) = experiment: Test A postemergence; conditions: Bassia scoparia, post-emergence, 240 h, postemergence; for pest or weed control at 125 g/ha: 125 g ai/ha
# Method in brief: (§1)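 Greenhouse, ~10 d after spray; visual injury vs untreated controls, 0 = no effect, 100 = complete control. Preemergence: directed soil spray over planted seeds. Postemergence: plants 2–10 cm, 1–2 leaf stage. Loam/sand blend. Compound in non-phytotoxic solvent with surfactant.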
# [1] = system: blackgrass (Alopecurus myosuroides); experiment: Test A postemergence; conditions: Alopecurus myosuroides, post-emergence, 240 h, postemergence; for pest or weed control at 125 g/ha: 125 g ai/ha
# Method in brief: as §1
# [2] = system: ryegrass, Italian (Italian ryegrass, Lolium multiflorum); experiment: Test A postemergence; conditions: Lolium multiflorum, post-emergence, 240 h, 125 g ai/ha, postemergence
# Method in brief: as §1
# [3] = system: giant foxtail (Setaria faberii); experiment: Test A postemergence; conditions: Setaria faberi, post-emergence, 240 h, postemergence; for pest or weed control at 125 g/ha: 125 g ai/ha
# Method in brief: as §1
# [4] = system: ragweed (common ragweed, Ambrosia elatior); experiment: Test A postemergence; conditions: Ambrosia artemisiifolia, post-emergence, 240 h, 125 g ai/ha, postemergence
# Method in brief: as §1
# [5] = system: barnyardgrass (Echinochloa crus-galli); experiment: Test A postemergence; conditions: Echinochloa crus-galli, post-emergence, 240 h, postemergence; for pest or weed control at 125 g/ha: 125 g ai/ha
# Method in brief: as §1
# [6] = system: Galium (catchweed bedstraw, Galium aparine); experiment: Test A postemergence; conditions: Galium, post-emergence, 240 h, postemergence; for pest or weed control at 125 g/ha: 125 g ai/ha
# Method in brief: as §1
# [7] = system: wheat (Triticum aestivum); experiment: Test A postemergence; conditions: Triticum aestivum, post-emergence, 240 h, 125 g ai/ha, postemergence
# Method in brief: as §1
# corn (Zea mays) = experiment: Test A postemergence; conditions: Zea mays, post-emergence, 240 h, postemergence; for plant injury at 125 g/ha: 125 g ai/ha
# Method in brief: as §1
# [8] = system: pigweed (Amaranthus retroflexus); experiment: Test A postemergence; conditions: Amaranthus retroflexus, post-emergence, 240 h, 125 g ai/ha, postemergence
# Method in brief: as §1
# [9] = system: pigweed (Amaranthus retroflexus); experiment: Test A preemergence; conditions: Amaranthus retroflexus, pre-emergence, 240 h; for pest or weed control at 125 g/ha: 125 g ai/ha; for pest or weed control at 500 g/ha: 500 g ai/ha
# rice (Oryra sativa) = experiment: Test B flooded paddy test; conditions: Oryza sativa, 250 g ai/ha, Flood, read-out: Rice plant response rating
# Method in brief: (§2)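 Evaluation by eye, against controls, occurred 13–15 d post-treatment in a greenhouse, using a 0 (no effect) to 100 (complete control) scale. Application was into the paddy water, 3 cm deep over the soil, on 2-leaf plants.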
# [10] = system: barnyardgrass (Echinochloa crus-galli); experiment: Test B flooded paddy test; conditions: Echinochloa crus-galli, 250 g ai/ha, Flood, read-out: Barnyardgrass plant response rating
# Method in brief: as §2
# [11] = system: sedge, umbrella (small-flower umbrella sedge, Cyperus difformis); experiment: Test B flooded paddy test; conditions: Cyperus difformis, 250 g ai/ha, Flood, read-out: Sedge, Umbrella plant response rating
# Method in brief: as §2
# [12] = system: ducksalad (Heteranthera limosa); experiment: Test B flooded paddy test; conditions: Heteranthera limosa, 250 g ai/ha, Flood, read-out: Ducksalad plant response rating
# Method in brief: as §2
# [13] = 0 to 100 scale where 0 is no effect and 100 is complete control
# [14] = scale of 0 to 100 where 0 is no effect and 100 is complete control
structure (smiles),measurement,setting,value
O=C(Nc1ccccc1F)[C@H]1C(=S)NC[C@@H]1c1ccc(C(F)(F)F)cc1 (racemic) [Compound 1047],pest or weed control at 125 g/ha,"Kochia (Kochia scoparia); visual injury on 0 to 100 scale (0 no effect, 100 complete control), approx. 10 d, read-out: Kochia plant response rating",0%
same,pest or weed control at 500 g/ha,"Kochia (Kochia scoparia); 500 g ai/ha, visual injury, 0 to 100 scale (0 no effect, 100 complete control), approx. 10 d, read-out: Plant response rating, Kochia",20%
same,pest or weed control at 125 g/ha,"[1]; visual injury on 0 to 100 scale (0 no effect, 100 complete control), approx. 10 d, read-out: Blackgrass plant response rating",0%
same,pest or weed control at 500 g/ha,"[1]; 500 g ai/ha, visual injury, 0 to 100 scale (0 no effect, 100 complete control), approx. 10 d, read-out: Plant response rating, Blackgrass",0%
same,pest or weed control at 125 g/ha,"[2]; visual injury on 0 to 100 scale (0 no effect, 100 complete control), approx. 10 d, read-out: Ryegrass, Italian plant response rating",0%
same,pest or weed control at 125 g/ha,"[3]; visual injury on 0 to 100 scale (0 no effect, 100 complete control), approx. 10 d, read-out: Foxtail, Giant plant response rating",50%
same,pest or weed control at 500 g/ha,"[3]; 500 g ai/ha, visual injury, 0 to 100 scale (0 no effect, 100 complete control), approx. 10 d, read-out: Plant response rating, Foxtail, Giant",80%
same,pest or weed control at 125 g/ha,"[4]; visual injury on 0 to 100 scale (0 no effect, 100 complete control), approx. 10 d, read-out: Ragweed plant response rating",0%
same,pest or weed control at 125 g/ha,"[5]; visual injury on 0 to 100 scale (0 no effect, 100 complete control), approx. 10 d, read-out: Barnyardgrass plant response rating",40%
same,pest or weed control at 500 g/ha,"[5]; 500 g ai/ha, visual injury, 0 to 100 scale (0 no effect, 100 complete control), approx. 10 d, read-out: Plant response rating, Barnyardgrass",80%
same,pest or weed control at 125 g/ha,"[6]; visual injury on 0 to 100 scale (0 no effect, 100 complete control), approx. 10 d, read-out: Galium plant response rating",0%
same,pest or weed control at 500 g/ha,"[6]; 500 g ai/ha, visual injury, 0 to 100 scale (0 no effect, 100 complete control), approx. 10 d, read-out: Plant response rating, Galium",50%
same,plant injury at 125 g/ha,"[7]; visual injury on 0 to 100 scale (0 no effect, 100 complete control), approx. 10 d, read-out: Wheat plant response rating",0%
same,plant injury at 125 g/ha,"corn (Zea mays); visual injury on 0 to 100 scale (0 no effect, 100 complete control), approx. 10 d, read-out: Corn plant response rating",0%
same,"Corn plant response rating (crop injury, 0 = no effect, 100 = complete kill) at 500 g/ha","corn (Zea mays); 500 g ai/ha, visual injury, 0 to 100 scale (0 no effect, 100 complete control), approx. 10 d",0%
same,pest or weed control at 125 g/ha,"[8]; visual injury on 0 to 100 scale (0 no effect, 100 complete control), approx. 10 d, read-out: Pigweed plant response rating",0%
same,pest or weed control at 125 g/ha,"[9]; Preemergence, visual injury rating after approximately 10 d, read-out: Pigweed plant response rating (0 to 100 scale, 0 is no effect, 100 is complete control)",0%
same,pest or weed control at 500 g/ha,"[9]; preemergence, visual injury rating about 10 d after treatment, 0 to 100 scale (0 no effect, 100 complete control), read-out: Pigweed plant response rating",20%
same,pest or weed control at 250 g/ha,rice (Oryra sativa); [13],0%
same,pest or weed control at 250 g/ha,[10]; [13],0%
same,pest or weed control at 250 g/ha,[11]; [13],0%
same,pest or weed control at 250 g/ha,[12]; [13],0%
Cc1cc(F)ccc1NC(=O)[C@H]1C(=O)NC[C@@H]1c1cccc(C(F)(F)F)c1 [Compound 828],pest or weed control at 125 g/ha,"Kochia (Kochia scoparia); visual injury rating after approximately 10 d, read-out: Kochia plant response rating (0 to 100 scale, 0 no effect, 100 complete control)",0%
same,pest or weed control at 125 g/ha,"[1]; visual injury rating after approximately 10 d, read-out: Blackgrass plant response rating (0 to 100 scale, 0 no effect, 100 complete control)",50%
same,pest or weed control at 125 g/ha,"[2]; visual injury rating after approximately 10 d, read-out: Ryegrass, Italian plant response rating (0 to 100 scale, 0 no effect, 100 complete control)",20%
same,pest or weed control at 125 g/ha,"[3]; visual injury rating after approximately 10 d, read-out: Foxtail, Giant plant response rating (0 to 100 scale, 0 no effect, 100 complete control)",90%
same,pest or weed control at 125 g/ha,"[4]; visual injury rating after approximately 10 d, read-out: Ragweed plant response rating (0 to 100 scale, 0 no effect, 100 complete control)",0%
same,pest or weed control at 125 g/ha,"[5]; visual injury rating after approximately 10 d, read-out: Barnyardgrass plant response rating (0 to 100 scale, 0 no effect, 100 complete control)",70%
same,pest or weed control at 125 g/ha,"[6]; visual injury rating after approximately 10 d, read-out: Galium plant response rating (0 to 100 scale, 0 no effect, 100 complete control)",30%
same,plant injury at 125 g/ha,"[7]; visual injury rating after approximately 10 d, read-out: Wheat plant response rating (0 to 100 scale, 0 no effect, 100 complete control)",20%
same,plant injury at 125 g/ha,"corn (Zea mays); visual injury rating after approximately 10 d, read-out: Corn plant response rating (0 to 100 scale, 0 no effect, 100 complete control)",40%
same,pest or weed control at 125 g/ha,"[8]; visual injury rating after approximately 10 d, read-out: Pigweed plant response rating (0 to 100 scale, 0 no effect, 100 complete control)",0%
same,pest or weed control at 125 g/ha,"[9]; preemergence, 0 to 100 scale where 0 is no effect and 100 is complete control, read-out: Pigweed plant response rating",0%
same,pest or weed control at 500 g/ha,"[9]; Preemergence, visual injury vs untreated controls after approximately 10 d, read-out: Pigweed plant response rating (0 to 100 scale where 0 is no effect and 100 is complete control)",0%
same,pest or weed control at 250 g/ha,rice (Oryra sativa); [14],0%
same,pest or weed control at 250 g/ha,[10]; [14],0%
same,pest or weed control at 250 g/ha,[11]; [14],0%
same,pest or weed control at 250 g/ha,[12]; [14],30%

# — patent US12077503B2, “Substituted cyclic amides and their use as herbicides” (FMC CORPORATION, priority 2015, dated 2024)
